The test system of data set [1] is K. pneumoniae ATCC 33495. The data set is classed as cell-based, Klebsiella pneumoniae. The text has this: (§1) All 81 compounds prepared in Examples 2 and 3 underwent screening against a panel of Gram-negative bacterium to assess their ability to inhibit bacterial growth. […] The median value is presented.
For data set [2], the system named is K. pneumoniae ATCC MS6671. Type of data set: cell-based, Klebsiella pneumoniae.
Excerpt: as §1

In data set [3] the test system is K. pneumoniae ATCC 700603. The data set is classed as cell-based, Klebsiella pneumoniae.
Excerpt: as §1

In data set [4] the test system is A. baumannii ATCC 19606. The data set is classed as cell-based, Acinetobacter baumannii.
Excerpt: as §1

In data set [5] the test system is E. coli ATCC MS8345. The data set is classed as cell-based, Escherichia coli.
Excerpt: as §1
Expansion of the polymyxin macrocycle by substituting […]) offered little advantage in antimicrobial activity but was generally well tolerated although for A. baumanni and P. aeruginosa this was detrimental.

Data set [6] relates to kidney organoids derived from human induced pluripotent stem cells. The experiment in a line: Nephrotoxicity on kidney organoids, renal tubule deterioration by bright field imaging. Note: key: 1 = unaffected; 2 = mild deterioration; 3 = severe deterioration; 4 = complete deterioration. The conditions noted are these: scored after 48 h. The data set is classed as cell-based. The protocol: Selected polymyxin analogues were evaluated for cytotoxicity in physiologically relevant human kidney tissue, using kidney organoids derived from human induced pluripotent stem cells (Soo et al. 2018). Monolipidated analogues 29, 31, 33, containing a propyl, decyl or phenyl lipid, dilapidated compounds, 35, 38, 39, containing a propyl, tert-butyl or phenyl, lipid, respectively and the N-capped, di-lipidated (phenyl) 49 were selected.
The control compound polymyxin B and the seven ClipPA analogues were tested by adding a range of concentrations (based on Gallado-Godoy et al. 2016) to the organoids at day 12 of the protocol, shown previously to correspond to optimal maturity of the organoid tissues.
Toxicity was scored after 48 h for signs of renal tubule deterioration visible by bright field imaging (not shown).

Data set [7] concerns P. aeruginosa ATCC 27853. The data set is classed as cell-based, Pseudomonas aeruginosa.
Excerpt: as §1

Data set [8] relates to E. coli ATCC 25922. Type of data set: cell-based, Escherichia coli.
Excerpt: as §1

≈ marks a conversion by molar mass, not a printed value. Read-outs that look alike come from different tables or passages of the source. Positions of bridges follow the written chain, without caps; N, C: chain ends. Non-standard residues stand in square brackets, D forms with d. Residues, ends and D or L forms follow the SMILES beside them. *: point of attachment. CH2CH2OBz(4-tBu) = CC(C)(C)c1ccc(C(=O)OCC*)cc1; Ethyl(2-propionyloxy) = CCC(=O)OCC*; Ethyl(2-OPiv) = CC(C)(C)C(=O)OCC*; Ethyl(2-OBz) = O=C(OCC*)c1ccccc1; Dab = NCC[C@H](N)C(=O)O

These results are taken from US20250282827A1, “LIPIDATED POLYMYXIN ANALOGUES” (priority 2021, published 2025).

For the compound `CCC(=O)OCCSC[C@H](N)C(=O)N[C@@H](CCN)C(=O)N[C@H](C(=O)N[C@@H](CCN)C(=O)N[C@H]1CCNC(=O)[C@H]([C@@H](C)O)NC(=O)[C@H](CCN)NC(=O)[C@H](CCN)NC(=O)[C@H](CSCCOC(=O)c2ccccc2)NC(=O)[C@@H](Cc2ccccc2)NC(=O)[C@H](CCN)NC1=O)[C@@H](C)O` [Compound 44] (H-C(Ethyl(2-propionyloxy))[Dab]T[Dab][Dab][Dab][dF]C(Ethyl(2-OBz))[Dab][Dab]T; lactam 5-C), in data set [1] (median of triplicate), the “MIC K. pneumoniae ATCC 33495” value came out at 0.5 µg/mL (≈ 0.356 µM). In addition, the “MIC K. pneumoniae ATCC MS6671” value in data set [2] (median of triplicate) was more than 32 µg/mL. Further, in data set [3] (median of triplicate), the “MIC K. pneumoniae ATCC 700603” value came out at 0.5 µg/mL (≈ 0.356 µM). The “MIC A. baumannii ATCC 19606” value in data set [4] (median of triplicate) is 32 µg/mL (≈ 22.8 µM). Besides, the “MIC E. coli ATCC MS8345” value in data set [5] (colistin-resistant strain, median of triplicate) was 32 µg/mL (≈ 22.8 µM). Further, the “Score (nephrotoxicity on kidney organoids)” value in data set [6] (100 μM) worked out at 1; in data set [6] (300 μM) it was 2; in data set [6] (1 mM), 3. Besides, in data set [7] (median of triplicate), the “MIC P. aeruginosa ATCC 27853” value turned out to be 16 µg/mL (≈ 11.4 µM). The “MIC E. coli ATCC 25922” value in data set [8] (median of triplicate) turned out to be 0.5 µg/mL (≈ 0.356 µM).

Consider `C[C@@H](O)[C@@H]1NC(=O)[C@H](CCN)NC(=O)[C@H](CCN)NC(=O)[C@H](CSCCOC(=O)c2ccccc2)NC(=O)[C@@H](Cc2ccccc2)NC(=O)[C@H](CCN)NC(=O)[C@@H](NC(=O)[C@H](CCN)NC(=O)[C@@H](NC(=O)[C@H](CCN)NC(=O)[C@@H](N)CSCCOC(=O)C(C)(C)C)[C@@H](C)O)CCNC1=O` [Compound 46] (H-C(Ethyl(2-OPiv))[Dab]T[Dab][Dab][Dab][dF]C(Ethyl(2-OBz))[Dab][Dab]T; lactam 5-C), for which the “MIC K. pneumoniae ATCC 33495” value in data set [1] (median of triplicate) came to 2 µg/mL (≈ 1.4 µM). For the same compound, the “MIC K. pneumoniae ATCC MS6671” value in data set [2] (median of triplicate) was more than 32 µg/mL. Moreover, the “MIC K. pneumoniae ATCC 700603” value in data set [3] (median of triplicate) lay within 1 to 2 µg/mL. In data set [4] (median of triplicate), the “MIC A. baumannii ATCC 19606” value turned out to be 16 µg/mL (≈ 11.2 µM). The “Score (nephrotoxicity on kidney organoids)” value in data set [6] (100 μM) is reported as 1; in data set [6] (300 μM), 3; in data set [6] (1 mM), 4. The “MIC P. aeruginosa ATCC 27853” value in data set [7] (median of triplicate) was found to be 16 µg/mL (≈ 11.2 µM). In addition, the “MIC E. coli ATCC 25922” value in data set [8] (median of triplicate) lay within 2 to 4 µg/mL.

On to `CC(C)C[C@@H]1NC(=O)[C@@H](Cc2ccccc2)NC(=O)[C@H](CCN)NC(=O)[C@@H](NC(=O)[C@H](CCN)NC(=O)[C@@H](NC(=O)[C@H](CCN)NC(=O)[C@@H](N)CSCCOC(=O)c2ccc(C(C)(C)C)cc2)[C@@H](C)O)CCCCNC(=O)[C@H]([C@@H](C)O)NC(=O)[C@H](CCN)NC(=O)[C@H](CCN)NC1=O` [Compound 28] (H-C(CH2CH2OBz(4-tBu))[Dab]T[Dab]K[Dab][dF]L[Dab][Dab]T; lactam 5-C), for which, in data set [1] (ATCC 33495), the “MIC K. pneumoniae ATCC 33495” value turned out to be 0.5 µg/mL (≈ 0.357 µM). For the same compound, the “MIC K. pneumoniae ATCC MS6671” value in data set [2] (ATCC MS6671) was more than 32 µg/mL. In addition, the “MIC K. pneumoniae ATCC 700603” value in data set [3] (ATCC 700603) was 4 µg/mL (≈ 2.86 µM). In data set [4] (ATCC 19606), the “MIC A. baumannii ATCC 19606” value came to 4 µg/mL (≈ 2.86 µM). The “MIC E. coli ATCC MS8345” value in data set [5] (ATCC MS8345) was 32 µg/mL (≈ 22.9 µM). The “MIC P. aeruginosa ATCC 27853” value in data set [7] (ATCC 27853) was 1 µg/mL (≈ 0.715 µM). Besides, the “MIC E. coli ATCC 25922” value in data set [8] (ATCC 25922) is 2 µg/mL (≈ 1.43 µM).

`CC(C)C[C@@H]1NC(=O)[C@@H](Cc2ccccc2)NC(=O)[C@H](CCN)NC(=O)[C@@H](NC(=O)[C@H](CCN)NC(=O)[C@@H](NC(=O)[C@H](CCN)NC(=O)[C@@H](N)CSCCOC(=O)C(C)(C)C)[C@@H](C)O)CCCCNC(=O)[C@H]([C@@H](C)O)NC(=O)[C@H](CCN)NC(=O)[C@H](CCN)NC1=O` [Compound 26] (H-C(Ethyl(2-OPiv))[Dab]T[Dab]K[Dab][dF]L[Dab][Dab]T; lactam 5-C): in data set [1] (ATCC 33495), the “MIC K. pneumoniae ATCC 33495” value was 0.5 µg/mL (≈ 0.378 µM). The “MIC K. pneumoniae ATCC MS6671” value in data set [2] (ATCC MS6671) is more than 32 µg/mL. Besides, the “MIC K. pneumoniae ATCC 700603” value in data set [3] (ATCC 700603) came out at 16 µg/mL (≈ 12.1 µM). In data set [4] (ATCC 19606), the “MIC A. baumannii ATCC 19606” value is more than 32 µg/mL. For the same compound, the “MIC E. coli ATCC MS8345” value in data set [5] (ATCC MS8345) was more than 32 µg/mL. The “MIC P. aeruginosa ATCC 27853” value in data set [7] (ATCC 27853) was more than 32 µg/mL. Moreover, in data set [8] (ATCC 25922), the “MIC E. coli ATCC 25922” value is 1 µg/mL (≈ 0.756 µM).
